The target of the experiment is Aβ plaques (Homo sapiens, UniProt P05067). As to the kind of experiment: MicroPET/CT imaging in APP/PS1 and WT mice. The experiment is classed as in vivo. The settings on record: for distribution volume ratio (DVR): cortical ROI, cerebellum reference, RefLogan. The method, then: To directly access the potential of [^18F]-9 to bind Aβ plaques in vivo, we performed microPET/CT imaging in age-matched APP^+/−/PS1^+/− mice (n = 3) compared their WT counterparts, 5 min-2 h post tail-vein injection. […] Time activity curves (TAC) also indicated higher retention of activity within transgenic mice brains compared with their WT counterparts (Fig. 10). Additionally, ROI (cortical regions) were also analyzed using linearized method with a reference region (cerebellum) via Reference Logan plot (RefLogan), and distribution volume ratios (DVR) were obtained. The analysis indicated a statistically significant DVR value of 1.18 for transgenic mice brain compared with that of 1.03 for WT brains. These smaller differences in DVR values of targeted regions in transgenic mice compared with that of WT counterparts could also be attributed to a lack of true negative reference region in aged PS1/APP mice[57]. […] The differences between these tracers in this rodent model could be attributed to ability of [^18F]-9 for targeting both diffuse and fibrillary plaques. To further evaluate, whether or not [^18F]-9 offers significant advantage over other approved tracers, the agent would need to be further investigated for its performance in other AD rodent models (APP23 and Tg2576).
Sequence of Aβ plaques (P05067 672-711 limits assumed): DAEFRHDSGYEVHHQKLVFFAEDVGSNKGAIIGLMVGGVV
Scientific Reports Version of August 4, 2016 approved guidelines. 15-month-old APP+/-/PS1+/- mice were imaged using intravital multiphoton microscopy to assess pharmacokinetic profiles of the 5. The thinned-skull cranial windows were prepared on the day prior to imaging, as previously described16-18. Briefly, mice were anesthetized under volatile isoflurane (2% induction, 1.5% maintenance), the scalp and periosteum were removed to expose the skull.
A speed drill and microsurgical blade (Surgistar) were used to thin the skull until the skull window ([…]
For imaging 5 labeled plaques, two-photon fluorescence was generated with 800 nm excitation, and fluorescent emission was detected in the range of 435-485nm. […]

Consider `CN(C)c1ncc(/C=C\c2nc3cc(OCC[18F])ccc3[se]2)cn1` [[^18F]-9], for which the “higher retention in transgenic mice brains vs WT” value (APP+/−/PS1+/− vs WT mice, n = 3, p < 0.05) is recorded as 1.2 folds. The “distribution volume ratio (DVR)” value is, setting by setting: (WT brains) 1.03; (transgenic mice brain) 1.18.

For the origin of these results see PMC5090206, “Fluselenamyl: A Novel Benzoselenazole Derivative for PET Detection of Amyloid Plaques (Aβ) in Alzheimer’s Disease” (Scientific Reports, 2016).
